Results published in patent publication US20230104936A1, “TRPML MODULATORS” (Casma Therapeutics, Inc., priority 2019, published 2023).

Test system: TFEB
Test: TFEB nuclear translocation assay, HeLa wt cells
Assay type: cell-based
Conditions: 2 hrs compound treatment, Table 1 does not say HeLa wt or TRPML1 KO
In short: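 HeLa wt, 2 hr compound, 37° C; 4% PFA fix; anti-TFEB (rabbit, 1:200, overnight 4° C) + Alexa 488 secondary, Hoechst. Imaged ×20, 4 fields/well. Readout: nuclear/ring Alexa 488 intensity ratio; AC50.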

CN1CC2(CCN(c3ccccc3NS(=O)(=O)c3ccc(S(C)(=O)=O)cc3)CC2)c2cccnc21 [Compound A-348, 4-methanesulfonyl-N-(2-{1′-methyl-1′,2′-dihydrospiro[piperidine-4,3′-pyrrolo[2,3-b]pyridin]-1-yl}phenyl)benzene-1-sulfonamide]
AC50 (Homo sapiens, HeLa, 2 h): 8.01 to 9.99 µM

Cc1ccc(S(=O)(=O)C(C)c2cccc(F)c2N2CCC(CN3C4CCC3COC4)CC2)cc1 (single isomer, unassigned) [Compound A-924, 8-((1-(2-fluoro-6-(1-tosylethyl)phenyl)piperidin-4-yl)methyl)-3-oxa-8-azabicyclo[3.2.1]octane]
AC50: ≤ 2 µM

COCC1(C)CCN(c2ccccc2NS(=O)(=O)C2CCc3ccccc32)CC1 (stereo not drawn) [Compound A-597, N-{2-[4-(methoxymethyl)-4-methylpiperidin-1-yl]phenyl}-2,3-dihydro-1H-indene-1-sulfonamide]
AC50 (Homo sapiens, HeLa, 2 h): 8.01 to 9.99 µM

COCCN1CC2(CCN(c3ccccc3NS(=O)(=O)c3ccc(S(C)(=O)=O)cc3)CC2)c2ccc(F)cc21 [Compound A-466, N-{2-[6-fluoro-1-(2-methoxyethyl)-1,2-dihydrospiro[indole-3,4′-piperidin]-1′-yl]phenyl}-4-methanesulfonylbenzene-1-sulfonamide]
AC50 (Homo sapiens, HeLa, 2 h): ≤ 2 µM

CN(C)S(=O)(=O)c1ccc(S(=O)(=O)Nc2ccccc2N2CC3CN(Cc4ccccc4)CC3C2)cc1 (stereo not drawn) [Compound A-502, N4-(2-{5-benzyl-octahydropyrrolo[3,4-c]pyrrol-2-yl}phenyl)-N1,N1-dimethylbenzene-1,4-disulfonamide; formic acid]
AC50 (Homo sapiens, HeLa, 2 h): ≤ 2 µM

Cc1ccc(S(=O)(=O)Nc2ccccc2-n2ccc(-c3ccc(Cl)cc3F)c2)cc1 [Compound A-93, N-{2-[3-(4-chloro-2-fluorophenyl)-1H-pyrrol-1-yl]phenyl}-4-methylbenzene-1-sulfonamide]
AC50 (Homo sapiens, HeLa, 2 h): ≥ 10 µM

O=S(=O)(Nc1ccccc1N1CCC(c2ccc(F)cc2F)CC1)c1ccc(S(=O)(=O)C(F)(F)F)cc1 [Compound A-173, N-{2-[4-(2,4-difluorophenyl)piperidin-1-yl]phenyl}-4-trifluoromethanesulfonylbenzene-1-sulfonamide]
AC50 (Homo sapiens, HeLa, 2 h): ≤ 2 µM

COCC1(C)CCN(c2ccccc2NS(=O)(=O)Cc2ccc(C(F)F)cc2)CC1 [Compound A-647, 1-[4-(difluoromethyl)phenyl]-N-{2-[4-(methoxymethyl)-4-methylpiperidin-1-yl]phenyl}methanesulfonamide]
AC50 (Homo sapiens, HeLa, 2 h): 8.01 to 9.99 µM

N#Cc1cccc(S(=O)(=O)Nc2ccccc2N2CCN(c3ccc(Cl)cc3F)CC2)c1 [Compound A-5, N-{2-[4-(4-chloro-2-fluorophenyl)piperazin-1-yl]phenyl}-3-cyanobenzene-1-sulfonamide]
AC50 (Homo sapiens, HeLa, 2 h): 2.01 to 8 µM

COCC1(C)CCN(c2ccccc2NC(C)c2ccc(S(=O)(=O)N(C)C)cc2)CC1 (stereo not drawn) [Compound A-490, 4-[1-({2-[4-(methoxymethyl)-4-methylpiperidin-1-yl]phenyl}amino)ethyl]-N,N-dimethylbenzene-1-sulfonamide]
AC50 (Homo sapiens, HeLa, 2 h): ≥ 10 µM

CC1(C)CC2(CCN(c3ccccc3NS(=O)(=O)c3ccc4c(c3)C(C)(C)CO4)CC2)CO1 [Compound A-742, N-(2-{3,3-dimethyl-2-oxa-8-azaspiro[4.5]decan-8-yl}phenyl)-3,3-dimethyl-2,3-dihydro-1-benzofuran-5-sulfonamide]
AC50 (Homo sapiens, HeLa, 2 h): ≤ 2 µM

CC(c1cccc(F)c1N1[C@@H]2CCC[C@H]1CC2)S(=O)(=O)c1ccc(S(=N)(=O)N(C)C)cc1 (single isomer, unassigned) [Compound A-989, 4-((1-(2-(8-azabicyclo[3.2.1]octan-8-yl)-3-fluorophenyl)ethyl)sulfonyl)-N,N-dimethylbenzenesulfonimidamide]
AC50: 8.01 to 9.99 µM

CN1Cc2ccccc2C2(CCN(c3ccccc3NS(=O)(=O)c3ccc(S(C)(=O)=O)cc3)CC2)C1 [Compound A-398, 4-methanesulfonyl-N-(2-{2-methyl-2,3-dihydro-1H-spiro[isoquinoline-4,4′-piperidin]-1′-yl}phenyl)benzene-1-sulfonamide; formic acid]
AC50 (Homo sapiens, HeLa, 2 h): 2.01 to 8 µM

CN(C)S(=O)(=O)c1ccc(S(=O)(=O)Nc2ccccc2N2CCC(C(=O)Nc3ccccc3)CC2)cc1 [Compound A-338, 1-{2-[4-(dimethylsulfamoyl)benzenesulfonamido]phenyl}-N-phenylpiperidine-4-carboxamide]
AC50 (Homo sapiens, HeLa, 2 h): 2.01 to 8 µM

C[C@H](c1cccc(F)c1N1CCC(F)(F)CC1)S(=O)(=O)c1ccc(S(=N)(=O)N(C)C)cc1 (single isomer, unassigned) [Compound A-891]
AC50: ≥ 10 µM

COCC1(C)CCN(c2ccccc2NS(=O)(=O)c2ccc(C(C)(C)OC)cc2)CC1 [Compound A-655, N-{2-[4-(methoxymethyl)-4-methylpiperidin-1-yl]phenyl}-4-(2-methoxypropan-2-yl)benzene-1-sulfonamide]
AC50 (Homo sapiens, HeLa, 2 h): 2.01 to 8 µM

CN1CC2(CCN(c3ccccc3NS(=O)(=O)c3ccc(S(=O)(=O)N(C)C)cc3)CC2)C2NCCCC21 (stereo not drawn) [Compound A-269, N1,N1-dimethyl-N4-(2-{1′-methyl-octahydrospiro[piperidine-4,3′-pyrrolo[3,2-b]pyridin]-1-yl}phenyl)benzene-1,4-disulfonamide]
AC50 (Homo sapiens, HeLa, 2 h): ≥ 10 µM

COc1ccc(S(=O)(=O)Nc2ccccc2N2CCC(N(C)c3ccc(F)cc3F)CC2)cc1 [Compound A-189, N-(2-{4-[(2,4-difluorophenyl)(methyl)amino]piperidin-1-yl}phenyl)-4-methoxybenzene-1-sulfonamide]
AC50 (Homo sapiens, HeLa, 2 h): ≤ 2 µM

CN(C)S(=O)(=O)c1ccc(S(=O)(=O)Nc2ccccc2N2CCOCC2)cc1 [Compound A-770, N1,N1-dimethyl-N4-[2-(morpholin-4-yl)phenyl]benzene-1,4-disulfonamide]
AC50 (Homo sapiens, HeLa, 2 h): ≥ 10 µM

Cc1cc(Cl)c(N2CCOCC2)c(NS(=O)(=O)c2ccc(S(=O)(=O)N(C)C)cc2)c1 [Compound A-888, N4-[3-chloro-5-methyl-2-(morpholin-4-yl)phenyl]-N1,N1-dimethylbenzene-1,4-disulfonamide]
AC50 (Homo sapiens, HeLa, 2 h): 2.01 to 8 µM

CC1(C)CC2(CCN(c3ccccc3NS(=O)(=O)c3ccc(S(C)(=O)=O)cc3)CC2)CO1 [Compound A-693, N-(2-{3,3-dimethyl-2-oxa-8-azaspiro[4.5]decan-8-yl}phenyl)-4-methanesulfonylbenzene-1-sulfonamide]
AC50 (Homo sapiens, HeLa, 2 h): 2.01 to 8 µM

CN(C)S(=O)(=O)c1ccc(S(=O)(=O)Nc2cncc(F)c2N2CCCCC2)cc1 [Compound A-856, N1-(5-fluoro-4-(piperidin-1-yl)pyridin-3-yl)-N^4,N^4-dimethylbenzene-1,4-disulfonamide]
AC50 (Homo sapiens, HeLa, 2 h): ≥ 10 µM

CN(C)S(=O)(=O)c1ccc(S(=O)(=O)Nc2nc(N3CCN(c4ccc(Cl)cc4F)CC3)nn2C)cc1 [Compound A-68, N1-(3-(4-(4-chloro-2-fluorophenyl)piperazin-1-yl)-1-methyl-1H-1,2,4-triazol-5-yl)-N4,N4-dimethylbenzene-1,4-disulfonamide]
AC50 (Homo sapiens, HeLa, 2 h): ≥ 10 µM

COCC1(C)CCN(c2ccccc2NS(=O)(=O)Cc2ccccc2Cl)CC1 [Compound A-601, 1-(2-chlorophenyl)-N-{2-[4-(methoxymethyl)-4-methylpiperidin-1-yl]phenyl}methanesulfonamide]
AC50 (Homo sapiens, HeLa, 2 h): 2.01 to 8 µM

CC(c1cccc(F)c1N1CCCCC1)S(=O)(=O)c1ccc(S(=O)(=O)N(C)C)cc1 (single isomer, unassigned) [Compound A-912, 4-((1-(3-fluoro-2-(piperidin-1-yl)phenyl)ethyl)sulfonyl)-N,N-dimethylbenzenesulfonamide]
AC50: ≤ 2 µM

CC(c1cccc(F)c1N1CCCCC1)S(=O)(=O)c1ccc2c(c1)CCS2(=O)=O (stereo not drawn) [Compound A-920, 5-{1-[3-fluoro-2-(piperidin-1-yl)phenyl]ethanesulfonyl}-2,3-dihydro-1λ^6-benzothiophene-1,1-dione]
AC50 (Homo sapiens, HeLa, 2 h): ≥ 10 µM

C[C@@H]1COC[C@@H](C)N1CC1CN(c2c(F)cccc2NS(=O)(=O)c2ccc(S(=O)(=O)N(C)C)cc2)C1 (stereo in doubt) [Compound A-873, N1-(2-(3-((3,5-dimethylmorpholino)methyl)azetidin-1-yl)-3-fluorophenyl)-N4,N4-dimethylbenzene-1,4-disulfonamide]
AC50 (Homo sapiens, HeLa, 2 h): ≥ 10 µM

CN(C)S(=O)(=O)c1ccc(S(=O)(=O)Cc2cccc(Cl)c2N2CCOCC2)cc1 [Compound A-327, 4-{[3-chloro-2-(morpholin-4-yl)phenyl]methanesulfonyl}-N,N-dimethylbenzene-1-sulfonamide]
AC50 (Homo sapiens, HeLa, 2 h): ≥ 10 µM

CN(C)S(=O)(=O)c1ccc(S(=O)(=O)Nc2ccccc2N2CCC(C(=O)N3CCOCC3)CC2)cc1 [Compound A-761, N1,N1-dimethyl-N4-{2-[4-(morpholine-4-carbonyl)piperidin-1-yl]phenyl}benzene-1,4-disulfonamide]
AC50 (Homo sapiens, HeLa, 2 h): ≥ 10 µM

CN(C)S(=O)(=O)c1ccc(S(=O)(=O)Nc2ccccc2N2CC3CC2CN3c2ccc(Cl)cc2F)cc1 (stereo not drawn) [Compound A-31, N4-{2-[5-(4-chloro-2-fluorophenyl)-2,5-diazabicyclo[2.2.1]heptan-2-yl]phenyl}-N1,N1-dimethylbenzene-1,4-disulfonamide]
AC50 (Homo sapiens, HeLa, 2 h): ≤ 2 µM

Cc1nn(C)c(C2CCN(c3ccc(Cl)cc3F)CC2)c1NS(=O)(=O)c1ccc(S(=O)(=O)N(C)C)cc1 [Compound A-33, N1-(5-(1-(4-chloro-2-fluorophenyl)piperidin-4-yl)-1,3-dimethyl-1H-pyrazol-4-yl)-N4,N4-dimethylbenzene-1,4-disulfonamide]
AC50 (Homo sapiens, HeLa, 2 h): ≥ 10 µM

CC(=O)Nc1cccc(NS(=O)(=O)c2ccc(S(=O)(=O)N(C)C)cc2)c1N1CCCCC1 [Compound A-827, N-{3-[4-(dimethylsulfamoyl)benzenesulfonamido]-2-(piperidin-1-yl)phenyl}acetamide]
AC50 (Homo sapiens, HeLa, 2 h): ≥ 10 µM

CN(C)S(=O)(=O)c1ccc(S(=O)(=O)Nc2ccccc2N2CCN(C(=O)[C@@H]3C[C@@H]4CC[C@H]3O4)CC2)cc1 (racemic) [Compound A-449, rac-N1,N1-dimethyl-N4-(2-{4-[(1R,2R,4S)-7-oxabicyclo[2.2.1]heptane-2-carbonyl]piperazin-1-yl}phenyl)benzene-1,4-disulfonamide]
AC50 (Homo sapiens, HeLa, 2 h): 2.01 to 8 µM
